# Measured values reported in patent US9771394B2, “Antimicrobial polymyxins for treatment of bacterial infections” (priority 2014, dated 2017).
# Where “and” joins values, the source holds several entries; their conditions need not be identical. Equal values may be shown once. Read-outs that look alike come from different tables or passages of the source. Marks after values point to notes of the source that are not given here. Starred links: 1 amine or outer side, 2 acyl side, 3 side chain; linkers in the order of their positions; H or OH if unused. Positions of bridges follow the written chain, without caps; N, C: chain ends. Non-standard residues stand in square brackets, D forms with d. Residues, ends and D or L forms follow the SMILES beside them. ξ: configuration not given here. *: point of attachment. Thr(3ξ) = CC(O)[C@H](N)C(=O)O; Suc = O=C(CCC(=O)[*:2])[*:1]; X2 = CCCC(C)OC(=O)CCC(=O)*; X5 = CCCCOP(=O)(O)CC(=O)*; Dab = NCC[C@H](N)C(=O)O
# Legend:
# P. aeruginosa PAE 1001 = format: cell-based, Pseudomonas aeruginosa
# Text: (§1) In vitro activity of compounds provided herein may be assessed by standard testing procedures such as the determination of minimum inhibitory concentration (MIC, μg/mL) just as described in “Methods for Dilution Antimicrobial Susceptibility Tests for Bacteria That Grow Aerobically; Approved Standard—Ninth Edition,” published in 2012 by the Clinical and Laboratory Standards Institute, Wayne, Pa., USA. Thus, bacterial colonies grown overnight on Mueller-Hinton Agar plate were selected and suspended in sterile saline to a turbidity of about 80% transmittance, as measured by a spectrophotometer. The suspension was diluted 200-fold with cation-adjusted Mueller-Hinton broth to serve as the inoculum for testing. Two-fold serial dilutions of the test compound were performed in 96-well master plate to arrive at desired concentration. Samples of 10 microliter from each well of the master plate were transferred into respective wells of 96-well assay plate. Bacterial inoculum (90 microliter) was introduced into each well of the assay plate. The assay plate was placed in the incubator at 35° C. for about 24 h (without agitation) followed by the MIC determination. MIC values were determined based on the presence or absence of bacterial growth in wells at the given test agent concentration. MIC value is defined as the lowest concentration of test antibiotic that prevents visible bacterial growth.
# (§2) The useful activity of exemplary compounds described herein against Gram-negative pathogens Pseudomonas aeruginosa, Escherichia coli, or Klebsiela pneumoniae is illustrated by the MIC data of Table 1.
# E. coli WECO 1003 = format: cell-based, Escherichia coli
# Text: as §1, §2
# K. pneumoniae KPN1004 = format: cell-based, Klebsiela pneumoniae
# Text: as §1, §2
# E. coli = E. coli septicemia (systemic) mouse model, IV dosing; format: in vivo, Escherichia coli; details: PMB values are side-by-side comparator; for number (A) of surviving animals out of total (B) mice, A/B: at 5 mg/kg
# Text: (§3) A lower ED50 value indicates a higher therapeutic efficacy of the drug. The number of surviving animals (from the total number of infected animals used at a given drug dose) is another indicator of efficacy. […] In thigh and lung infection models, a greater reduction in the bacterial colony-forming units (CFU) indicates stronger beneficial therapeutic effect (more bacterial eradication), while a lower CFU reduction or an increase in CFU value indicates a lower effect (less bacterial eradication), or an absence of the therapeutic effect.
# P. aeruginosa [1] = experiment: P. aeruginosa thigh infection mouse model, IV dosing; format: in vivo, Pseudomonas aeruginosa; details: CFU change at 12 h vs no treatment control, PMB values in parenthesis side-by-side
# Text: as §3
# P. aeruginosa [2] = experiment: P. aeruginosa lung infection (pneumonia) mouse model, SC dosing; format: in vivo, Pseudomonas aeruginosa; details: for Relative CFU count, vs. PMB: mouse lung infection, 10 mg/kg; for P. aeruginosa Lung infection model ΔlogCFU at 10 mg/kg: mouse, CFU change at 24 h vs starting inoculum
# Text: as §3
# [3] = Stability in human plasma at 37° C.; format: in vitro ADME
# Experimental: Exemplary compounds of this invention were tested for stability in human plasma at 37° C., replicating in vivo conditions of mammalian blood. Plasma stability for select compounds was performed as follows. Human plasma (K2 EDTA) was obtained from Bioreclamation. The assay was carried out in 96-well microtiter plates. Test compounds were incubated in duplicate at 37° C. in the presence of plasma. Reaction mixtures (25 μL) contained a final concentration of 25 μM test compound. The extent of metabolism was calculated as the disappearance of the test compound over time. Eucatropine was included as a positive control to verify assay performance. At each given time point, 100 μL of quench solution (100% MeCN with 0.1% HCOOH) with internal standard was transferred to each well. Plates were sealed, vortexed, and centrifuged at 4° C. for 15 minutes at 4,000 rpm. The supernatant was transferred to fresh plates for LC/MS/MS analysis. The formation of a potential metabolite was monitored in all samples. The samples were analyzed on LC/MS/MS using an AB Sciex API 4000 instrument, coupled to a Shimadzu LC-20AD LC Pump system. Analytical samples were separated using a Waters Atlantis T3 dC18 reverse phase HPLC column (20 mm×2.1 mm) at […] a flow rate of 0.5 mL/min, eluting with 0.1% aq. HCOOH and 0.1% HCOOH in MeCN (using gradient from 2% to 98% of the latter). Remaining test compounds were quantified via MS/MS ion current.
# human HK-2 cell = experiment: Human HK-2 cell cytotoxicity assay (in vitro nephrotoxicity); format: cell-based
# Text: (§4) Nephrotoxicity of polymyxins could be determined in vitro using human renal […] (HK-2) cytotoxicity assay, analogously to that described, for example, by Keirstead et al. in Toxicol. Sci., 2014, vol. 137, pp. 278-291. In vivo, nephrotoxicity could be determined using urine biomarker assays, such as clinically validated neutrophil gelatinase-associated lipocalin (NGAL) assay described, for example by Devarajan in Scand. J. Clin. Lab. Invest. Suppl., 2008, vol. […], pp. 89-94.
# [4] = system: neutrophil gelatinase-associated lipocalin (NGAL); experiment: Rat urine NGAL biomarker assay (in vivo nephrotoxicity); details: repeated dose, 25 mg/kg/day QID, SC, Low = signal similar to the background
# Text: as §4
# [5] = system: Gram-negative pathogens Pseudomonas aeruginosa, Escherichia coli, or Klebsiela pneumoniae; experiment: MIC, Gram-negative panel of Table 1; format: cell-based
# Text: In vitro activity of compounds provided herein may be assessed by standard testing procedures such as the determination of minimum inhibitory concentration (MIC, μg/mL) just as described in “Methods for Dilution Antimicrobial Susceptibility Tests for Bacteria That Grow Aerobically; Approved Standard—Ninth Edition,” published in 2012 by the Clinical and Laboratory Standards Institute, Wayne, Pa., USA. Thus, bacterial colonies grown overnight on Mueller-Hinton Agar plate were selected and suspended in sterile saline to a turbidity of about 80% transmittance, as measured by a spectrophotometer. The suspension was diluted 200-fold with cation-adjusted Mueller-Hinton broth to serve as the inoculum for testing. Two-fold serial dilutions of the test compound were performed in 96-well master plate to arrive at desired concentration. Samples of 10 microliter from each well of the master plate were transferred into respective wells of 96-well assay plate. Bacterial inoculum (90 microliter) was introduced into each well of the assay plate. The assay plate was placed in the incubator at 35° C. for about 24 h (without agitation) followed by the MIC determination. MIC values were determined based on the presence or absence of bacterial growth in wells at the given test agent concentration. MIC value is defined as the lowest concentration of test antibiotic that prevents visible bacterial growth. […]
# [6] = 35° C., about 24 h, cation-adjusted Mueller-Hinton broth
Compound,Antibacterial activity (MIC) P. aeruginosa PAE 1001 (P. aeruginosa PAE 1001; [6]),Antibacterial activity (MIC) E. coli WECO 1003 (E. coli WECO 1003; [6]),Antibacterial activity (MIC) K. pneumoniae KPN1004 (K. pneumoniae KPN1004; [6]),"Relative CFU count, vs. PMB (P. aeruginosa [2])",P. aeruginosa Lung infection model ΔlogCFU at 10 mg/kg (P. aeruginosa [2]),"Antibacterial activity (MIC) P. aeruginosa PAE 1001 (P. aeruginosa PAE 1001; PAE 1001, 24 h) [µg/mL]","Antibacterial activity (MIC) E. coli WECO 1003 (E. coli WECO 1003; WECO 1003, 24 h) [µg/mL]","Antibacterial activity (MIC) K. pneumoniae KPN1004 (K. pneumoniae KPN1004; KPN1004, 24 h) [µg/mL]","P. aeruginosa Thigh model, IV dosing ΔlogCFU at 5 mg/kg (P. aeruginosa [1])",HK-2 cytotoxicity class (human HK-2 cell),IC50 (human HK-2 cell) [µM],other results
polymyxin B [reference compound],2-4^a μg/mL,2-4^a μg/mL,2-4^a μg/mL,1,+2.61,,,,,,,"E. coli Systemic model, IV dosing ED50 (E. coli; listed as PMB): 4.6 mg/kg and 3.9 mg/kg and 2.5 mg/kg; E. coli Systemic model, IV dosing ED50 (E. coli; listed as Polymyxin B (PMB)): 4 to 7 mg/kg; number (A) of surviving animals out of total (B) mice, A/B (E. coli; listed as PMB): 2/6 and 5/6 and 3/6; P. aeruginosa Thigh model, IV dosing ΔlogCFU at 5 mg/kg (P. aeruginosa [1]; listed as Polymyxin B (PMB)): −1.49 to −3.33; Compound remaining, % T = 1.0 h ([3]; human plasma, 37° C., 25 μM, 1.0 h): 100^a^ %; Compound remaining, % T = 4.0 h ([3]; human plasma, 37° C., 25 μM, 4.0 h): 100^a %; HK-2 cytotoxicity class (human HK-2 cell; HK-2 cytotoxicity, Eurofins Cerep): Class 1; IC50 (human HK-2 cell; HK-2 cytotoxicity, Eurofins Cerep, read-out: In vitro: human HK-2 cell assay IC50): 82 µM; In vivo: rat urine biomarker NGAL [4]: High: above detection"
CC(C)C[C@@H]1NC(=O)[C@@H](Cc2ccccc2)NC(=O)[C@H](CCN)NC(=O)[C@@H](NC(=O)[C@H](CCN)NC(=O)[C@@H](NC(=O)[C@H](CCN)NC(=O)CCC(=O)O)C(C)O)CCNC(=O)[C@H](C(C)O)NC(=O)[C@H](CCN)NC(=O)[C@H](CCN)NC1=O (stereo partly shown) [Example 19] (Suc-[Dab][Thr(3ξ)][Dab][Dab][Dab][dF]L[Dab][Dab][Thr(3ξ)]; lactam 4-C),,,,,,4,>32,>32,−0.14,Class 4,> 200,"antibacterial activity in words (MIC, Table 1) ([5]; Example 19: against two Gram-negative pathogens in the test): essentially inactive"
CCCCOP(=O)(O)CC(=O)N[C@@H](CCN)C(=O)N[C@H](C(=O)N[C@@H](CCN)C(=O)N[C@H]1CCNC(=O)[C@H](C(C)O)NC(=O)[C@H](CCN)NC(=O)[C@H](CCN)NC(=O)[C@H](CC(C)C)NC(=O)[C@@H](Cc2ccccc2)NC(=O)[C@H](CCN)NC1=O)C(C)O (stereo partly shown) [Example 33] (X5-[Dab][Thr(3ξ)][Dab][Dab][Dab][dF]L[Dab][Dab][Thr(3ξ)]; lactam 4-C),8 µg/mL,8 µg/mL,8 µg/mL,,,,,,,,,fold less active than polymyxin B comparator (MIC) ([5]; vs polymyxin B): about 2 fold
CCCC(C)OC(=O)CCC(=O)N[C@@H](CCN)C(=O)N[C@H](C(=O)N[C@@H](CCN)C(=O)N[C@H]1CCNC(=O)[C@H](C(C)O)NC(=O)[C@H](CCN)NC(=O)[C@H](CCN)NC(=O)[C@H](CC(C)C)NC(=O)[C@@H](Cc2ccccc2)NC(=O)[C@H](CCN)NC1=O)C(C)O (stereo partly shown) [Example 18] (X2-[Dab][Thr(3ξ)][Dab][Dab][Dab][dF]L[Dab][Dab][Thr(3ξ)]; lactam 4-C),,,,4.8 × 10^−6,−2.70,2,2,4,−1.29,Class 4,> 200,"E. coli Systemic model, IV dosing ED50 (E. coli): 7.5 mg/kg; number (A) of surviving animals out of total (B) mice, A/B (E. coli): 3/6; remaining at 1 h, 25 μM ([3]; human, plasma): 66%; remaining at 4 h, 25 μM ([3]; human, plasma): 18%"
